# According to US20020137929A1, “1 - (3-heterocyclylphenyl) isothiourea, -isourea, -guanidine and -amidine herbicidal agents” (Intellectual Property Department, BASF Aktiengesellschaft, priority 1998, published 2002):
# Experiments:
# [1] = tested on: ECHORC (Watergrass (Calif.)); test: Preemergence weed control under flooded paddy conditions; format: in vivo, Echinochloa oryzoides; settings: rated 3-4 weeks after treatment
# Procedure, shortened: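 Seeds or propagules sown in top 0.5 cm of silt loam soil, flooded 1.5 to 3 cm above surface throughout. Compound in 50/50 v/v aqueous/acetone pipetted into flood water at about 0.0313 to 0.500 kg/ha. Visual 0-9 rating versus control after three to four weeks in greenhouse.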
# SETVI (Foxtail, Green) = test: Preemergence herbicidal evaluation; format: in vivo, Setaria viridis; settings: preemergence, rated 4-5 weeks after treatment, 0-9 scale
# Procedure, shortened: (§1)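 Seeds were planted in potting soil in cups, then sprayed preemergence with the test compound in aqueous acetone at about 0.0156 to 0.500 kg per hectare. Cups were kept under greenhouse conditions and visually rated 4–5 weeks after treatment on a 0–9 scale against an untreated control.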
# [2] = tested on: ECHORC (Watergrass (Calif.)); test: Postemergence weed control under flooded paddy conditions; format: in vivo, Echinochloa oryzoides; settings: postemergence weeds, rated 3 to 4 weeks after treatment
# Procedure, shortened: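 Containers holding 3–5 cm weeds and rice at 1.5–2.5 leaves are flooded to 1.5–3 cm above soil. Compound in 50/50 v/v aqueous/acetone is then added directly to the water, about 0.0313–0.500 kg/ha. Plants are kept in the greenhouse and rated 0–9 visually at 3–4 weeks.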
# [3] = tested on: GLXMAW (Soybean, Williams); test: Postemergence herbicidal evaluation; format: in vivo, Glycine max, (L.) Merr. cv Williams; settings: postemergence
# Procedure, shortened: (§2)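 Seedlings grown about two weeks were sprayed at 40 psi with compound dispersed in 50/50 acetone/water plus 0.5% TWEEN 20, at about 0.0156 to 0.500 kg/ha. Plants were kept in the greenhouse and scored 4–5 weeks later on a 0–9 visual scale against untreated controls.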
# ORYSAT (Rice, Tebonnet) = test: Preemergence herbicidal evaluation; format: in vivo, Oryza sativa, (L.) Tebonnet; settings: preemergence, rated 4-5 weeks after treatment, 0-9 scale
# Procedure, shortened: as §1
# GALAP (Galium) [4] = test: Preemergence herbicidal evaluation; format: in vivo, Galium aparine; settings: preemergence, rated 4-5 weeks after treatment, 0-9 scale
# Procedure, shortened: as §1
# CYPSE (Flatsedge) = test: Preemergence weed control under flooded paddy conditions; format: in vivo, Cyperus serotinus; settings: rated 3-4 weeks after treatment
# Procedure, shortened: (§3)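 Visual injury scored 0-9 against control three to four weeks post-treatment, greenhouse-grown. Application: acetone/water (50/50) solutions dosed directly into flood water (1.5-3 cm over silt loam, planted top 0.5 cm), roughly 0.0313 to 0.500 kg/ha active ingredient.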
# AMBEL (Ragweed, Common) = test: Postemergence herbicidal evaluation; format: in vivo, Ambrosia artemisifolia; settings: postemergence
# Procedure, shortened: as §2
# CASOB (Sicklepod) = test: Postemergence herbicidal evaluation; format: in vivo, Cassia obtusifolia; settings: postemergence
# Procedure, shortened: as §2
# GALAP (Galium) [5] = test: Postemergence herbicidal evaluation; format: in vivo, Galium aparine; settings: postemergence
# Procedure, shortened: as §2
# MOOVA (Monochoria) = test: Preemergence weed control under flooded paddy conditions; format: in vivo, Monochoria vaginalis; settings: rated 3-4 weeks after treatment
# Procedure, shortened: as §3
# [6] = tested on: TRZAWR (Wheat, Winter, cv Riband); test: Postemergence herbicidal evaluation; format: in vivo, Triticum aestivum; settings: postemergence
# Procedure, shortened: as §2
smiles,measurement,setting,value
"C=CCN1C(=O)C(CC(=O)NS(C)(=O)=O)SC1=Nc1cc(-n2c(=O)cc(C(F)(F)F)n(C)c2=O)c(F)cc1Cl (stereo not drawn) [Compound 96, 3-Allyl-2-{{2-chloro-5-[3,6-dihydro-3-methyl-2,6-dioxo-4-(trifluoromethyl)-1(2H)-pryimidinyl]-4-fluorophenyl}imino}-N-(methylsulfonyl)-4-oxo-5-thiazolidineacetamide]",ECHORC herbicidal effect rating,[1]; 0.0313 kg/ha,0.0
same,ECHORC herbicidal effect rating,[1]; 0.0625 kg/ha,0.0
same,ECHORC herbicidal effect rating,[1]; 0.1250 kg/ha,0.0
same,ECHORC herbicidal effect rating,[1]; 0.2500 kg/ha,3.0
same,SETVI rating,"SETVI (Foxtail, Green); 0.0313 kg/ha",1.0
same,SETVI rating,"SETVI (Foxtail, Green); 0.0625 kg/ha",1.0
same,SETVI rating,"SETVI (Foxtail, Green); 0.1250 kg/ha",0.0
same,SETVI rating,"SETVI (Foxtail, Green); 0.2500 kg/ha",1.0
same,SETVI rating,"SETVI (Foxtail, Green); 0.5000 kg/ha",4.0
same,Herbicidal rating ECHORC,[2]; Rate 0.0313 kg/ha,0.0
same,Herbicidal rating ECHORC,[2]; Rate 0.0625 kg/ha,0.0
same,Herbicidal rating ECHORC,[2]; Rate 0.1250 kg/ha,0.0
same,Herbicidal rating ECHORC,[2]; Rate 0.2500 kg/ha,3.0
same,GLXMAW herbicidal rating,[3]; rate 0.0156 kg/ha,4.0
same,GLXMAW herbicidal rating,[3]; rate 0.0313 kg/ha,4.5
same,GLXMAW herbicidal rating,[3]; rate 0.0625 kg/ha,4.0
same,GLXMAW herbicidal rating,[3]; rate 0.1250 kg/ha,3.0
same,ORYSAT rating,"ORYSAT (Rice, Tebonnet); 0.0313 kg/ha",0.0
same,ORYSAT rating,"ORYSAT (Rice, Tebonnet); 0.0625 kg/ha",0.0
same,ORYSAT rating,"ORYSAT (Rice, Tebonnet); 0.1250 kg/ha",0.0
same,ORYSAT rating,"ORYSAT (Rice, Tebonnet); 0.2500 kg/ha",1.0
same,ORYSAT rating,"ORYSAT (Rice, Tebonnet); 0.5000 kg/ha",2.0
same,GALAP rating,GALAP (Galium) [4]; 0.0313 kg/ha,0.0
same,GALAP rating,GALAP (Galium) [4]; 0.0625 kg/ha,2.0
same,GALAP rating,GALAP (Galium) [4]; 0.1250 kg/ha,2.0
same,GALAP rating,GALAP (Galium) [4]; 0.2500 kg/ha,6.0
same,GALAP rating,GALAP (Galium) [4]; 0.5000 kg/ha,7.0
same,CYPSE herbicidal effect rating,CYPSE (Flatsedge); 0.0313 kg/ha,0.0
same,CYPSE herbicidal effect rating,CYPSE (Flatsedge); 0.0625 kg/ha,0.0
same,CYPSE herbicidal effect rating,CYPSE (Flatsedge); 0.1250 kg/ha,0.0
same,CYPSE herbicidal effect rating,CYPSE (Flatsedge); 0.2500 kg/ha,0.0
same,AMBEL herbicidal rating,"AMBEL (Ragweed, Common); rate 0.0156 kg/ha",3.0
same,AMBEL herbicidal rating,"AMBEL (Ragweed, Common); rate 0.0313 kg/ha",4.0
same,AMBEL herbicidal rating,"AMBEL (Ragweed, Common); rate 0.0625 kg/ha",7.0
same,AMBEL herbicidal rating,"AMBEL (Ragweed, Common); rate 0.1250 kg/ha",7.0
same,CASOB herbicidal rating,CASOB (Sicklepod); rate 0.0156 kg/ha,0.0
same,CASOB herbicidal rating,CASOB (Sicklepod); rate 0.0313 kg/ha,0.0
same,CASOB herbicidal rating,CASOB (Sicklepod); rate 0.0625 kg/ha,1.0
same,CASOB herbicidal rating,CASOB (Sicklepod); rate 0.1250 kg/ha,0.0
same,GALAP herbicidal rating,GALAP (Galium) [5]; rate 0.0156 kg/ha,0.0
same,GALAP herbicidal rating,GALAP (Galium) [5]; rate 0.0313 kg/ha,0.0
same,GALAP herbicidal rating,GALAP (Galium) [5]; rate 0.0625 kg/ha,1.0
same,GALAP herbicidal rating,GALAP (Galium) [5]; rate 0.1250 kg/ha,0.0
same,MOOVA herbicidal effect rating,MOOVA (Monochoria); 0.0313 kg/ha,2.0
same,MOOVA herbicidal effect rating,MOOVA (Monochoria); 0.0625 kg/ha,2.0
same,MOOVA herbicidal effect rating,MOOVA (Monochoria); 0.1250 kg/ha,3.0
same,MOOVA herbicidal effect rating,MOOVA (Monochoria); 0.2500 kg/ha,3.0
same,TRZAWR herbicidal rating,[6]; rate 0.0156 kg/ha,2.0
same,TRZAWR herbicidal rating,[6]; rate 0.0313 kg/ha,2.5
same,TRZAWR herbicidal rating,[6]; rate 0.0625 kg/ha,2.5
same,TRZAWR herbicidal rating,[6]; rate 0.1250 kg/ha,3.0
